Measurements reported in US20180000085A1, “USE OF PICOLINAMIDE COMPOUNDS WITH FUNGICIDAL ACTIVITY” (DOW AGROSCIENCES LLC, priority 2014, published 2018).

How the values were obtained:
Zymoseptoria tritici = assay: Leaf blotch of wheat (SEPTTR) disease control on wheat seedlings; type: in vivo; set-up: key to SEPTTR 1DP, HV activity at 100 ppm (% control rating) / SEPTTR 3DC, HV activity at 100 ppm (% control rating) / SEPTTR disease control, 1DP / SEPTTR disease control, 3DC / SEPTTR 1DP disease control rating, HV activity / SEPTTR 3DC disease control rating, HV activity / SEPTTR 3DC, LV activity at 125.1 g/H (% Control rating) / SEPTTR 1DP, LV activity at 125.1 g/H (% Control rating) / SEPTTR 1DP disease control rating, LV activity at 125.1 g/H / SEPTTR 3DC disease control rating, LV activity at 125.1 g/H / SEPTTR 3DC disease control rating, HV activity at 100 ppm / SEPTTR 1DP disease control rating, HV activity at 100 ppm / HV activity at 100 ppm SEPTTR 3DC (disease control rating) / HV activity at 100 ppm SEPTTR 1DP (disease control rating) / LV activity at 125.1 g/H SEPTTR 1DP (disease control rating) / LV activity at 125.1 g/H SEPTTR 3DC (disease control rating): A: > 80; B: ≤ 80; C: Not Tested; D: No Activity Observed in the Reported Assay; details: for LV activity at 125.1 g/H SEPTTR 1DP (disease control rating) / LV activity at 125.1 g/H SEPTTR 3DC (disease control rating) / SEPTTR 1DP disease control rating, LV activity at 125.1 g/H / SEPTTR 3DC disease control rating, LV activity at 125.1 g/H: low volume application; for SEPTTR 1DP disease control rating, LV activity at 125.1 g/H / SEPTTR 1DP disease control rating, HV activity at 100 ppm: 1 day protectant; for SEPTTR 3DC disease control rating, LV activity at 125.1 g/H / SEPTTR 3DC disease control rating, HV activity at 100 ppm: 3 day curative; for SEPTTR 1DP disease control rating, HV activity at 100 ppm / SEPTTR 3DC disease control rating, HV activity at 100 ppm: high volume application
Experimental: (§1) All fungicides were evaluated using the aforementioned method for their activity vs. all target diseases, unless stated otherwise. Wheat leaf blotch and brown rust activity were also evaluated using track spray applications, in which case the fungicides were formulated as EC formulations, containing 0.1% Trycol 5941 in the spray solutions. Wheat plants (variety Yuma) were grown from seed in a greenhouse in 50% mineral soil/50% soil-less Metro mix until the first leaf was fully emerged, with 7-10 seedlings per pot. These plants were inoculated with an aqueous spore suspension of Zymoseptoria tritici either prior to or after fungicide treatments. After inoculation the plants were kept in 100% relative humidity (one day in a dark dew chamber followed by two to three days in a lighted dew chamber at 20° C.) to permit spores to germinate and infect the leaf. The plants were then transferred to a greenhouse set at 20° C. for disease to develop. When disease symptoms were fully expressed on the 1st leaves of untreated plants, infection levels were assessed on a scale of 0 to 100 percent disease severity. Percent disease control was calculated using the ratio of disease severity on treated plants relative to untreated plants.

Puccinia triticina = assay: Wheat brown rust (PUCCRT) disease control on wheat seedlings; type: in vivo; set-up: key to PUCCRT 3DC, HV activity at 100 ppm (% control rating) / PUCCRT disease control, 3DC / PUCCRT 1DP disease control rating, HV activity / PUCCRT 3DC disease control rating, HV activity / PUCCRT 3DC, LV activity at 125.1 g/H (% Control rating) / PUCCRT 1DP, LV activity at 125.1 g/H (% Control rating) / PUCCRT 3DC disease control rating, LV activity at 125.1 g/H / PUCCRT 1DP disease control rating, LV activity at 125.1 g/H / PUCCRT 3DC disease control rating, HV activity at 100 ppm / PUCCRT 1DP disease control rating, HV activity at 100 ppm / HV activity at 100 ppm PUCCRT 3DC (disease control rating) / LV activity at 125.1 g/H PUCCRT 1DP (disease control rating) / LV activity at 125.1 g/H PUCCRT 3DC (disease control rating): A: > 80; B: ≤ 80; C: Not Tested; D: No Activity Observed in the Reported Assay; details: for LV activity at 125.1 g/H PUCCRT 1DP (disease control rating) / LV activity at 125.1 g/H PUCCRT 3DC (disease control rating) / PUCCRT 1DP disease control rating, LV activity at 125.1 g/H / PUCCRT 3DC disease control rating, LV activity at 125.1 g/H: low volume application; for PUCCRT 1DP disease control rating, LV activity at 125.1 g/H / PUCCRT 1DP disease control rating, HV activity at 100 ppm: 1 day protectant; for PUCCRT 3DC disease control rating, LV activity at 125.1 g/H / PUCCRT 3DC disease control rating, HV activity at 100 ppm: 3 day curative; for PUCCRT 1DP disease control rating, HV activity at 100 ppm / PUCCRT 3DC disease control rating, HV activity at 100 ppm: high volume application
Experimental: as §1, with “plants. Example B: Evaluation of Fungicidal Activity: Wheat Brown Rust (Puccinia triticina; Synonym: Puccinia recondita f. sp. Tritici; Bayer Code PUCCRT) Wheat plants (variety Yuma) were grown from seed in a greenhouse in 50% mineral soil/50% soil-less Metro mix until the first leaf was fully emerged, with 7-10 seedlings per pot. These plants were inoculated with an aqueous spore suspension of Puccinia triticina either prior to or after fungicide treatments. […] The plants were then transferred to a greenhouse set at 24° C. for disease to develop. Fungicide formulation, application and disease assessment followed the procedures as described in the Example A.” for “plants.”

[1] = 1 Day Protectant, wheat leaf blotch
[2] = 3 Day Curative, wheat leaf blotch
[3] = 1 Day Protectant, wheat brown rust
[4] = 3 Day Curative, wheat brown rust

Row | Structure (SMILES) | LV activity at 125.1 g/H SEPTTR 1DP (disease control rating) (Zymoseptoria tritici; [1]) | LV activity at 125.1 g/H SEPTTR 3DC (disease control rating) (Zymoseptoria tritici; [2]) | LV activity at 125.1 g/H PUCCRT 1DP (disease control rating) (Puccinia triticina; [3]) | LV activity at 125.1 g/H PUCCRT 3DC (disease control rating) (Puccinia triticina; [4]) | SEPTTR 1DP disease control rating, LV activity at 125.1 g/H (Zymoseptoria tritici) | SEPTTR 3DC disease control rating, LV activity at 125.1 g/H (Zymoseptoria tritici) | PUCCRT 1DP disease control rating, LV activity at 125.1 g/H (Puccinia triticina) | PUCCRT 3DC disease control rating, LV activity at 125.1 g/H (Puccinia triticina) | other results
1 | CCC[C@@H](Oc1ccc(Cl)c(OC)c1)[C@H](C)OC(=O)[C@H](C)NC(=O)c1nccc(OC)c1OC(C)=O [Cmpd 1054] | B (≤ 80) | B (≤ 80) | A (> 80) | A (> 80) |  |  |  |  | 
2 | COc1cccc(O[C@@H]([C@H](C)OC(=O)[C@H](C)NC(=O)c2nccc(OC)c2OC(C)=O)C(C)(C)C)c1 [Cmpd 1062] | B (≤ 80) | B (≤ 80) | A (> 80) | A (> 80) |  |  |  |  | 
3 | COc1ccnc(C(=O)N[C@@H](C)C(=O)O[C@@H](C)[C@@H](OCC(C)C)c2ccccc2)c1OCOC(C)=O [Cmpd 880] |  |  |  |  | B (≤ 80) | B (≤ 80) | A (> 80) | A (> 80) | 
4 | CCC[C@@H](Oc1ccc(Cl)c(OC)c1)[C@H](C)OC(=O)[C@H](C)NC(=O)c1nccc(OC)c1O [Cmpd 1008] |  |  |  |  |  |  |  |  | SEPTTR 1DP disease control rating, HV activity at 100 ppm (Zymoseptoria tritici): B (≤ 80); SEPTTR 3DC disease control rating, HV activity at 100 ppm (Zymoseptoria tritici): B (≤ 80); PUCCRT 1DP disease control rating, HV activity at 100 ppm (Puccinia triticina): B (≤ 80); PUCCRT 3DC disease control rating, HV activity at 100 ppm (Puccinia triticina): B (≤ 80)
5 | CC[C@H](Oc1ccccc1)[C@@H](Oc1ccccc1)[C@H](C)OC(=O)[C@H](C)NC(=O)c1nccc(OC)c1O [Cmpd 309] |  |  |  |  |  |  |  |  | SEPTTR 1DP disease control rating, HV activity (Zymoseptoria tritici; HV application at 100 ppm, 1 Day Protectant, wheat leaf blotch): A (> 80); SEPTTR 3DC disease control rating, HV activity (Zymoseptoria tritici; HV application at 100 ppm, 3 Day Curative, wheat leaf blotch): B (≤ 80); PUCCRT 1DP disease control rating, HV activity (Puccinia triticina; HV application at 100 ppm, 1 Day Protectant, wheat brown rust): A (> 80); PUCCRT 3DC disease control rating, HV activity (Puccinia triticina; HV application at 100 ppm, 3 Day Curative, wheat brown rust): A (> 80)
6 | C=CC[C@@H](Oc1cccc(Cl)c1)[C@H](C)OC(=O)[C@H](C)NC(=O)c1nccc(OC)c1OC(C)=O [Cmpd 1079] | B (≤ 80) | B (≤ 80) | A (> 80) | A (> 80) |  |  |  |  | 
7 | COc1ccnc(C(=O)N[C@@H](C)C(=O)O[C@@H](C)[C@H](Oc2cccc(Cl)c2)C(C)(C)C)c1O [Cmpd 1007] |  |  |  |  |  |  |  |  | SEPTTR 1DP disease control rating, HV activity at 100 ppm (Zymoseptoria tritici): A (> 80); SEPTTR 3DC disease control rating, HV activity at 100 ppm (Zymoseptoria tritici): B (≤ 80); PUCCRT 1DP disease control rating, HV activity at 100 ppm (Puccinia triticina): A (> 80); PUCCRT 3DC disease control rating, HV activity at 100 ppm (Puccinia triticina): A (> 80)
8 | CCC(CC)C(Oc1ccc(Cl)cc1Cl)C(C)OC(=O)C(CC(C)C)NC(=O)c1nccc(OC)c1OCOC(C)=O (stereo not drawn) [Cmpd 684] |  |  |  |  | D | D | B (≤ 80) | D | 
9 | C=CC[C@@H](Oc1ccc(Cl)cc1Cl)[C@H](C)OC(=O)[C@H](C)NC(=O)c1nccc(OC)c1OCOC(C)=O [Cmpd 700] |  |  |  |  | D | B (≤ 80) | A (> 80) | A (> 80) | 
